Source: patent US11648254B2 (Kumquat Biosciences Inc., priority 2021, dated 2023)
pIC50: −log10 of the molar value. Where two headings read alike, the source gives them in different places.

How the values were obtained:
[1] = test system: MIA PaCa-2 cells (K-Ras G12C); assay: Ras-SOS cellular growth inhibition assay (CellTiter-Glo, 3D); assay type: cell-based; details: Homo sapiens
Outline: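 MIA PaCa-2 cells grown in ultra-low-attachment plates (3D) in DMEM/Ham's F12 with 10% FCS and 2.5% horse serum, treated the day after seeding with a 9-point 3-fold compound series for about 5 days. Viability by CellTiter-Glo luminescence; IC50 from four-parameter fit.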

SOS1 = SOS1 (Homo sapiens (Human), UniProt Q07889); assay: Ras-SOS interaction assay (HTRF); assay type: biochemical
SOS1, sequence (Q07889 564-1049): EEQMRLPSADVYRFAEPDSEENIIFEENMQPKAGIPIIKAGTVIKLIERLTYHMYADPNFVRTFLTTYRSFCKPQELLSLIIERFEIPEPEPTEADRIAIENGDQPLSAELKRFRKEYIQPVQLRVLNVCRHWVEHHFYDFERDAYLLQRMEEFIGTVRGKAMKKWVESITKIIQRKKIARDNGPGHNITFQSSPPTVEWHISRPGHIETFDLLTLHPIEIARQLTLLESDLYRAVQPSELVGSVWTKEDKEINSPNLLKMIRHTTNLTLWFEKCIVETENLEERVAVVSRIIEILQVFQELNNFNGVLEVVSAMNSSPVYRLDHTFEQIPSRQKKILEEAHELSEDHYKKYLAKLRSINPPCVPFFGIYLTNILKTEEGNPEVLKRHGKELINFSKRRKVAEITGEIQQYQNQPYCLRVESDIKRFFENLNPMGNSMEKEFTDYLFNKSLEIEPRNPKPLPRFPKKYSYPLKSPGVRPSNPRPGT

[2] = test system: NCI-H1975 cells (EGFR T790M L858R); assay: EGFR-SOS cellular inhibition assay (CellTiter-Glo, 3D); assay type: cell-based; details: Homo sapiens
[3] = MIA PaCa-2, 120 h, MIA PaCa-2, 3D proliferation, about 5 days, read-out: Bio-Cell-Prolif-3D (MiaPaca2 IC50)
[4] = MIA PaCa-2, MIA PaCa-2, read-out: IC50 in inhibiting MIA PaCa-2 cell growth
[5] = K-RasG13D utilized, read-out: IC50 inhibition of SOS
[6] = K-RasG13D, read-out: IC50 value against SOS1
[7] = 120 h, NCI-H1975, 3D proliferation, about 5 days, read-out: Bio-Cell-Prolif-3D (H1975 IC50)
[8] = NCI-H1975, EGFR T790M L858R, read-out: IC50 in inhibiting growth of NCI-H1975 cell line

pIC50 [1, 3]	pIC50 [1, 4]	pIC50 (SOS1; [5])	pIC50 (SOS1; [6])	pIC50 [2, 7]	pIC50 [2, 8]	Compound
≥ 6.00	> 6.30	> 7.00	> 7.30	≥ 6.00	> 6.30	COc1nc2nc(C)nc(N[C@H](C)c3cccc(C(F)(F)CCC4CN(C(C)C)C4)c3F)c2cc1C1(C#N)CC1 [Compound 176, (R)-1-(4-((1-(3-(1,1-difluoro-3-(1-isopropylazetidin-3-yl)propyl)-2-fluorophenyl)ethyl)amino)-7-methoxy-2-methylpyrido[2,3-d]pyrimidin-6-yl)cyclopropane-1-carbonitrile]
≥ 6.00	> 6.30	> 7.00	> 7.30	≥ 6.00	> 6.30	COc1nc2nc(C)nc(N[C@H](C)c3cccc(C(F)(F)CCC4CN(C)C4)c3F)c2cc1C1(C#N)CC1 [Compound 177, (R)-1-(4-((1-(3-(1,1-difluoro-3-(1-methylazetidin-3-yl)propyl)-2-fluorophenyl)ethyl)amino)-7-methoxy-2-methylpyrido[2,3-d]pyrimidin-6-yl)cyclopropane-1-carbonitrile]
≥ 6.00	> 6.30	> 7.00	> 7.30	5.00 to 6.00	–	Cc1nc(N[C@H](C)c2cccc(C(F)(F)F)c2C)c2cc(C3(C#N)CC3)c(N3CCN(C(C)C)CC3)nc2n1 [Compound 178, (R)-1-(7-(4-isopropylpiperazin-1-yl)-2-methyl-4-((1-(2-methyl-3-(trifluoromethyl)phenyl)ethyl)amino)pyrido[2,3-d]pyrimidin-6-yl)cyclopropane-1-carbonitrile]
≥ 6.00	> 6.30	> 7.00	> 7.30	≥ 6.00	> 6.30	COc1nc2nc(C)nc(N[C@H](C)c3cccc(C(F)(F)CO)c3)c2cc1C1(C#N)CC1 [Compound 179, (R)-1-(4-((1-(3-(1,1-difluoro-2-hydroxyethyl)phenyl)ethyl)amino)-7-methoxy-2-methylpyrido[2,3-d]pyrimidin-6-yl)cyclopropane-1-carbonitrile]
≥ 6.00	> 6.30	> 7.00	> 7.30	≥ 6.00	> 6.30	COc1nc2nc(C)nc(N[C@H](C)c3cccc(C(F)(F)CCC4CN(C)C4)c3F)c2cc1C1CCS(=O)(=O)CC1 [Compound 180, (R)-4-(4-((1-(3-(1,1-difluoro-3-(1-methylazetidin-3-yl)propyl)-2-fluorophenyl)ethyl)amino)-7-methoxy-2-methylpyrido[2,3-d]pyrimidin-6-yl)tetrahydro-2H-thiopyran 1,1-dioxide]
≥ 6.00	> 6.30	> 7.00	> 7.30	≥ 6.00	> 6.30	COc1nc2nc(C)nc(N[C@H](C)c3cccc(C(F)(F)CO)c3F)c2cc1N1CCN(C(C)C)CC1 [Compound 181, (R)-2,2-difluoro-2-(2-fluoro-3-(1-((6-(4-isopropylpiperazin-1-yl)-7-methoxy-2-methylpyrido[2,3-d]pyrimidin-4-yl)amino)ethyl)phenyl)ethan-1-ol]
5.00 to 6.00	–	> 7.00	> 7.30	≥ 6.00	> 6.30	Cc1nc(N[C@H](C)c2cccc(C(F)F)c2F)c2cc(N3CCS(=O)(=O)CC3)c(OC3COC3)nc2n1 [Compound 183, (R)-4-(4-((1-(3-(difluoromethyl)-2-fluorophenyl)ethyl)amino)-2-methyl-7-(oxetan-3-yloxy)pyrido[2,3-d]pyrimidin-6-yl)thiomorpholine 1,1-dioxide]
≥ 6.00	–	> 7.00	–	≥ 6.00	> 6.30	COc1nc2ncnc(N[C@H](C)c3cccc(C(F)F)c3F)c2cc1C1(C#N)CC1 [Compound 184, (R)-1-(4-((1-(3-(difluoromethyl)-2-fluorophenyl)ethyl)amino)-7-methoxypyrido[2,3-d]pyrimidin-6-yl)cyclopropane-1-carbonitrile]
5.00 to 6.00	–	6.00 to 7.00	–	5.00 to 6.00	–	COc1nc2ncnc(N[C@H](C)c3cccc(C(F)F)c3F)c2cc1C1(C(F)F)CC1 [Compound 185, (R)-N-(1-(3-(difluoromethyl)-2-fluorophenyl)ethyl)-6-(1-(difluoromethyl)cyclopropyl)-7-methoxypyrido[2,3-d]pyrimidin-4-amine]
5.00 to 6.00	–	> 7.00	> 7.30	5.00 to 6.00	–	CC(C)N1CCC(c2cc3c(N[C@H](C)c4cccc(C(F)F)c4F)ncnc3nc2OC2CN(C)C2)CC1 [Compound 187, (R)-N-(1-(3-(difluoromethyl)-2-fluorophenyl)ethyl)-6-(1-isopropylpiperidin-4-yl)-7-((1-methylazetidin-3-yl)oxy)pyrido[2,3-d]pyrimidin-4-amine]
5.00 to 6.00	–	> 7.00	> 7.30	≥ 6.00	> 6.30	CCN1CCN(c2cc3c(N[C@H](C)c4cccc(C(F)F)c4F)nc(C)nc3nc2NC2COC2)CC1 [Compound 188, (R)-N4-(1-(3-(difluoromethyl)-2-fluorophenyl)ethyl)-6-(4-ethylpiperazin-1-yl)-2-methyl-N7-(oxetan-3-yl)pyrido[2,3-d] pyrimidine-4,7-diamine]
5.00 to 6.00	–	> 7.00	–	≥ 6.00	–	COc1nc2ncnc(N[C@H](C)c3cccc(C(F)F)c3F)c2cc1C1CCN(C(C)C)CC1 [Compound 189, (R)-N-(1-(3-(difluoromethyl)-2-fluorophenyl)ethyl)-6-(1-isopropylpiperidin-4-yl)-7-methoxypyrido[2,3-d]pyrimidin-4-amine]
≥ 6.00	> 6.30	> 7.00	> 7.30	≥ 6.00	> 6.30	Cc1nc(N[C@H](C)c2cccc(C(F)F)c2F)c2cc(C3(C(F)F)CC3)c(OC3CN(C)C3)nc2n1 [Compound 190, (R)-N-(1-(3-(difluoromethyl)-2-fluorophenyl)ethyl)-6-(1-(difluoromethyl)cyclopropyl)-2-methyl-7-((1-methylazetidin-3-yl)oxy)pyrido[2,3-d] pyrimidin-4-amine]
5.00 to 6.00	–	> 7.00	> 7.30	5.00 to 6.00	–	Cc1nc(N[C@H](C)c2cccc(C(F)F)c2F)c2cc(C3CCS(=O)(=O)CC3)c(OC3CN(C)C3)nc2n1 [Compound 191, (R)-4-(4-((1-(3-(difluoromethyl)-2-fluorophenyl)ethyl)amino)-2-methyl-7-((1-methylazetidin-3-yl)oxy)pyrido[2,3-d]pyrimidin-6-yl)tetrahydro-2H-thiopyran 1,1-dioxide]
5.00 to 6.00	–	> 7.00	> 7.30	≥ 6.00	–	Cc1nc(N[C@H](C)c2cccc(C(F)F)c2F)c2cc(N3CCN(C(C)C)CC3)c(NC3COC3)nc2n1 [Compound 192, (R)-N4-(1-(3-(difluoromethyl)-2-fluorophenyl)ethyl)-6-(4-isopropylpiperazin-1-yl)-2-methyl-N7-(oxetan-3-yl)pyrido[2,3-d] pyrimidine-4,7-diamine]
≥ 6.00	> 6.30	> 7.00	> 7.30	≥ 6.00	–	Cc1nc(N[C@H](C)c2cccc(C(F)(F)CO)c2)c2cc(C3(C#N)CC3)c(Cl)nc2n1 [Compound 194, (R)-1-(7-chloro-4-((1-(3-(1,1-difluoro-2-hydroxyethyl)phenyl)ethyl)amino)-2-methylpyrido[2,3-d]pyrimidin-6-yl)cyclopropane-1-carbonitrile]
≥ 6.00	> 6.30	> 7.00	> 7.30	≥ 6.00	> 6.30	CCN1CCN(c2cc3c(N[C@H](C)c4cccc(C(F)(F)F)c4F)ncnc3nc2OC)CC1 [Compound 196, (R)-6-(4-ethylpiperazin-1-yl)-N-(1-(2-fluoro-3-(trifluoromethyl)phenyl)ethyl)-7-methoxypyrido[2,3-d]pyrimidin-4-amine]
≥ 6.00	> 6.30	> 7.00	> 7.30	≥ 6.00	> 6.30	COc1nc2ncnc(N[C@H](C)c3cccc(C(F)(F)F)c3F)c2cc1N1CCN(C)CC1 [Compound 197, (R)-N-(1-(2-fluoro-3-(trifluoromethyl)phenyl)ethyl)-7-methoxy-6-(4-methylpiperazin-1-yl)pyrido[2,3-d] pyrimidin-4-amine]
≥ 6.00	> 6.30	> 7.00	> 7.30	≥ 6.00	> 6.30	CCN1CCN(c2cc3c(N[C@H](C)c4cccc(C(F)(F)F)c4C)ncnc3nc2OC)CC1 [Compound 198, (R)-6-(4-ethylpiperazin-1-yl)-7-methoxy-N-(1-(2-methyl-3-(trifluoromethyl)phenyl)ethyl)pyrido[2,3-d]pyrimidin-4-amine]
≥ 6.00	> 6.30	> 7.00	> 7.30	≥ 6.00	> 6.30	CCN1CCC(c2cc3c(N[C@H](C)c4cccc(C(F)(F)F)c4F)ncnc3nc2OC)CC1 [Compound 199, (R)-6-(1-ethylpiperidin-4-yl)-N-(1-(2-fluoro-3-(trifluoromethyl)phenyl)ethyl)-7-methoxypyrido[2,3-d]pyrimidin-4-amine]
